Measured values from patent US10752588B2 (The Broad Institute, Inc., priority 2014, dated 2020).

What was measured:
human D2R/β-arrestin [1] = target: T1, human D2R/β-arrestin (Homo sapiens (Human), UniProt P14416); experiment: cell-based; conditions: β-arrestin Antagonist, CHO-K1 cell line expressing human D2R/β-arrestin; quinpirole used as agonist
human D2R/β-arrestin [2] = target: T1, human D2R/β-arrestin; experiment: β-Arrestin agonist assay (PathHunter); format: cell-based; conditions: CHO-K1 cell line expressing human D2R/β-arrestin
Protocol: (§1) The assays can be performed using proper detection reagents either prepared using routine methods known in the art or commercially available (e.g., PathHunter® β-Arrestin Detecting Kit (DiscoveRX)). Cells are grown to the necessary confluence and then detached. The cells are then centrifuged, washed, resuspended, and seeded into a container (e.g., 384-well plate). The cells are incubated (e.g., at 37° C., 5% CO2) for the appropriate period of time (e.g., 24 hours), before various compounds (e.g., a compound of the invention or a control compound) are added to the cells. After incubation of the cells with the compounds, detection reagents (e.g., a buffer containing Emerald II: Galactor-Star as provided DiscoveRX) are added to the cells. The read-out (e.g., luminescence, or fluorescence) is detected using standard equipment.
The detection reagent (9.6 μL, Buffer:Emerald II:Galactor-Star in a 19:5:1 ratio, i.e., 14.06 mL:3.7 mL:0.74 mL=18.5 mL) was then added to the agonist plates.

human D2R/β-arrestin [3] = target: T1, human D2R/β-arrestin; experiment: Gi/cAMP agonist assay (Lance Ultra cAMP, Forskolin); format: cell-based; conditions: CHO-K1 cell line expressing human D2R/β-arrestin
Protocol: as §1, with “PE Lance Ultra cAMP kit (TRF0263)).” for “PathHunter® β-Arrestin Detecting Kit (DiscoveRX)).”, “Afterwards, cAMP inducing agents (e.g., Forskolin) are added to and incubated with” for “After incubation of”, “before” for “with the compounds,”, “cAMP antibody, such” for “buffer containing Emerald II: Galactor-Star”, “ULight-anti-cAMP solution)” for “provided DiscoveRX)”, “Read-out” for “The read-out”
Compounds were pin-transferred (100 nL) to the cells, and incubated for 10 min. at 37° C. […] Eu-cAMP tracer solution (100, PerkinElmer, […] in 17.64 ml kit buffer) and ULight-anti-cAMP solution (100, 120 μL antibody in 17.88 ml kit buffer) was then added to each well.

human D2R/β-arrestin [4] = target: T1, human D2R/β-arrestin; experiment: cell-based; conditions: cAMP Antagonist, CHO-K1 cell line expressing human D2R/β-arrestin; quinpirole used as agonist
Protocol: The detection reagents are then added, and the read-out is detected.
Cells were prepared for assays by growing cultures for up to 2 weeks (from about 6-20 passages). A vial of frozen cells was thawed in a water bath held at 37° C. The cells were then transferred into a 50 ml tube with 10 ml growth media. The vial was rinsed with growth media and the contents transferred to the 50 ml tube. The 50 ml tube was centrifuged at 1200 rpm for 5 minutes at room temperature. […] When the cells reached about 90% confluence (approximately 3 days between passages), the cells were passaged and used for either the agonist or antagonist assays as described below.
The cells were prepared for Gi/cAMP assays as described above. The assays were performed using a PE Lance Ultra cAMP kit (TRF0263). The cells were grown on 225 mm dishes, then washed once with 1×PBS (Cellgro) before digestion with 2.5 ml 1× Detachment reagent (DRX 92-0009) for about 2 minutes. PBS (20 ml) was then added to the plate, and the cells were transferred to a 50 ml centrifuge tube, and centrifuged at room temperature using BD Dynac III, at 1200 rpm for 5 minutes. […] The plates were then incubated at room temperature for about 30 minutes before addition of Eu-cAMP tracer solution (100, PerkinElmer) and then ULight-anti-cAMP solution (100) to each well.

T1 sequence (P14416 whole entry): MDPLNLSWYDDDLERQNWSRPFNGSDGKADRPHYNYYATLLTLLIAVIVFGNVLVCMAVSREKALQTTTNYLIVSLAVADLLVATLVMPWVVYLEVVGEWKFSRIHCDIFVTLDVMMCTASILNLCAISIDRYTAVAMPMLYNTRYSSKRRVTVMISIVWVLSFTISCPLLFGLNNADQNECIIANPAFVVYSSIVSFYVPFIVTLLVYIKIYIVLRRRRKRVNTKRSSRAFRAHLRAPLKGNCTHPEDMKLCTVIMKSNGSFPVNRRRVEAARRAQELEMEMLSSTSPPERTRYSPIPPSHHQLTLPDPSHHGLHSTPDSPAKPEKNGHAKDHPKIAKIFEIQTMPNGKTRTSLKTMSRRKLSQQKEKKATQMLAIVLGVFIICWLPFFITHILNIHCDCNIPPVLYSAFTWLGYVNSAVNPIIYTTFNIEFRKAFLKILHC

| SMILES | IC50 (human D2R/β-arrestin [1]) [nM] | EC50 (human D2R/β-arrestin [2]) [nM] | EC50 (human D2R/β-arrestin [3]) [nM] | IC50 (human D2R/β-arrestin [4]) [nM] |
| --- | --- | --- | --- | --- |
| O=C(NC(c1ccc(F)cc1)c1ccccn1)C1CCN(CC2Cc3ccccc3C2)CC1 (stereo not drawn) [Compound 61, 1-((2,3-dihydro-1H-inden-2-yl)methyl)-N-((4-fluorophenyl)(pyridin-2-yl)methyl)piperidine-4-carboxamide] | 10000 to 30000 | > 30000 | > 30000 | 10000 to 30000 |
| Clc1cccc(C2CCN(CCCOc3ccc4scnc4c3)CC2)c1Cl [UNC9994, reference compound] | 100 to 1000 | 100 to 1000 | < 100 | > 30000 |
| O=C(NC(c1ccc(Cl)cc1)c1ccncc1F)C1CCN(CCOc2ccccc2)CC1 (stereo not drawn) [Compound 117, N-((4-chlorophenyl)(3-fluoropyridin-4-yl)methyl)-1-(2-phenoxyethyl) piperidine-4-carboxamide] | 1000 to 10000 | > 30000 | 100 to 1000 | > 30000 |
| Fc1ccccc1C(NCC1CCN(CCOc2ccccc2)CC1)c1ccc(Cl)cc1 (single isomer, unassigned) [Compound 81a, 1-(4-chlorophenyl)-1-(2-fluorophenyl)-N-((1-(2-phenoxyethyl)piperidin-4-yl)methyl)methanamine] | 100 to 1000 | > 30000 | > 30000 | 100 to 1000 |
| O=C(NC(c1cccc(OC(F)(F)F)c1)c1ccccn1)C1CCN(CCOc2ccccc2)CC1 (stereo not drawn) [Compound 118, 1-(2-phenoxyethyl)-N-(pyridin-2-yl(3-(trifluoromethoxy)phenyl)methyl) piperidine-4-carboxamide] | 1000 to 10000 | > 30000 | < 100 | > 30000 |
| CC1(C(=O)NC(c2ccc(F)cc2)c2ccccn2)CCN(CCOc2ccccc2F)CC1 (stereo not drawn) [Compound 71, 1-(2-(2-fluorophenoxy)ethyl)-N-((4-fluorophenyl)(pyridin-2-yl)methyl)-4-methylpiperidine-4-carboxamide] | 100 to 1000 | < 100 | < 100 | > 30000 |
| COc1ccccc1C(NC(=O)C1CCN(CCOc2ccccc2)CC1)c1ccc(Cl)cc1 (stereo not drawn) [Compound 43] | 1000 to 10000 | > 30000 | 1000 to 10000 | > 30000 |
| COc1cccc(C(c2ccccn2)N(C)CC2CCN(CCOc3ccccc3)CC2)c1 (single isomer, unassigned) [Compound 76a, 1-(3-methoxyphenyl)-N-methyl-N-((1-(2-phenoxyethyl)piperidin-4-yl)methyl)-1-(pyridin-2-yl)methanamine] | 1000 to 10000 | > 30000 | 100 to 1000 | 100 to 1000 |
| CC1(CNC(c2ccc(F)cc2)c2ccccn2)CCN(CCOc2ccccc2C(F)(F)F)CC1 (single isomer, unassigned) [Compound 101a, 1-(4-fluorophenyl)-N-((4-methyl-1-(2-(2-(trifluoromethyl)phenoxy)ethyl)piperidin-4-yl)methyl)-1-(pyridin-2-yl)methanamine] | 100 to 1000 | > 30000 | > 30000 | 100 to 1000 |
| COc1cccc(C(c2ccccn2)N(C)CC2CCN(CCOc3ccccc3)CC2)c1 (stereo not drawn) [Compound 76, 1-(3-methoxyphenyl)-N-methyl-N-((1-(2-phenoxyethyl)piperidin-4-yl)methyl)-1-(pyridin-2-yl)methanamine] | 1000 to 10000 | > 30000 | < 100 | 10000 to 30000 |
| COc1cccc(C(NC(=O)C2CCN(CCOc3ccccc3Cl)CC2)c2ccccc2F)c1 (stereo not drawn) [Compound 86, 1-(2-(2-chlorophenoxy)ethyl)-N-((2-fluorophenyl)(3-methoxyphenyl)methyl)piperidine-4-carboxamide] | < 100 | > 30000 | > 30000 | < 100 |
| CC(C)N(CC1CCN(CCOc2ccccc2F)CC1)C(c1ccc(Cl)cc1)c1ccccn1 (single isomer, unassigned) [Compound 133b, N-((4-chlorophenyl)(pyridin-2-yl)methyl)-N-((1-(2-(2-fluorophenoxy)ethyl)piperidin-4-yl)methyl)propan-2-amine] | 100 to 1000 | < 100 | < 100 | > 30000 |
| O=C(NC(c1ccc(Cl)cc1)c1ccccn1)C1CCN(CCn2ccccc2=O)CC1 (stereo not drawn) [Compound 9, N((4-chlorophenyl)(pyridin-2-yl)methyl)-1-(2-(2-oxopyridin-1(2H)-yl)ethyl) piperidine-4-carboxamide] | 1000 to 10000 | > 30000 | > 30000 | 1000 to 10000 |
| O=C(NC1CCN(CCOc2ccccc2)CC1)C(c1ccc(Cl)cc1)c1ccccn1 (stereo not drawn) [Compound 126, 2-(4-chlorophenyl)-N-(1-(2-phenoxyethyl)piperidin-4-yl)-2-(pyridin-2-yl)acetamide] | 1000 to 10000 | > 30000 | < 100 | > 30000 |
| CN(CC1CCN(CCOc2ccccc2C(F)(F)F)CC1)C(c1ccc(Cl)cc1)c1ccccn1 (stereo not drawn) [Compound 73] | < 100 | > 30000 | > 30000 | < 100 |
| CC1(C(=O)NC(c2ccc(F)cc2)c2ccccn2)CCN(CCOc2ccccc2C(F)(F)F)CC1 (stereo not drawn) [Compound 70, N-((4-fluorophenyl)(pyridin-2-yl)methyl)-4-methyl-1-(2-(2-(trifluoromethyl)phenoxy)ethyl) piperidine-4-carboxamide] | 100 to 1000 | > 30000 | 100 to 1000 | 100 to 1000 |
| CC1(CNC(c2ccc(F)cc2)c2ccccn2)CCN(CCOc2ccccc2C(F)(F)F)CC1 (stereo not drawn) [Compound 101, 1-(4-fluorophenyl)-N-((4-methyl-1-(2-(2-(trifluoromethyl)phenoxy)ethyl)piperidin-4-yl)methyl)-1-(pyridin-2-yl)methanamine] | 100 to 1000 | > 30000 | > 30000 | < 100 |
| O=C(NC(c1ccc(F)cc1)c1ccccc1F)C1CCN(CCOc2ccccc2)CC1 (stereo not drawn) [Compound 49, N-((2-fluorophenyl)(4-fluorophenyl)methyl)-1-(2-phenoxyethyl)piperidine-4-carboxamide] | 100 to 1000 | > 30000 | 1000 to 10000 | 1000 to 10000 |
| Fc1ccc(F)c(OCCN2CCC(CNC(c3ccc(Cl)cc3)c3ccccn3)CC2)c1 (stereo not drawn) [Compound 89, 1-(4-chlorophenyl)-N-((1-(2-(2,5-difluorophenoxy)ethyl)piperidin-4-yl)methyl)-1-(pyridin-2-yl)methanamine] | 100 to 1000 | > 30000 | > 30000 | 100 to 1000 |
| CC1(C(=O)NC(c2ccc(F)cc2)c2ccccn2)CCN(CCOc2ccccc2)CC1 (stereo not drawn) [Compound 69, N-((4-fluorophenyl)(pyridin-2-yl)methyl)-4-methyl-1-(2-phenoxyethyl)piperidine-4-carboxamide] | 100 to 1000 | 100 to 1000 | < 100 | > 30000 |
| O=C(NC(c1ccc(Cl)cc1)c1ccncc1F)C1CCN(CCOc2ccccc2F)CC1 (single isomer, unassigned) [Compound 91a, N-((4-chlorophenyl)(3-fluoropyridin-4-yl)methyl)-1-(2-(2-fluorophenoxy)ethyl)piperidine-4-carboxamide] | 1000 to 10000 | > 30000 | 100 to 1000 | > 30000 |
| O=C(NC(c1ccc(Cl)cc1)c1ccccn1)C1CCN(CCOc2ccccc2OC(F)(F)F)CC1 (stereo not drawn) [Compound 68, N-((4-chlorophenyl)(pyridin-2-yl)methyl)-1-(2-(2-(trifluoromethoxy)phenoxy)ethyl) piperidine-4-carboxamide] | < 100 | > 30000 | > 30000 | < 100 |
| COc1cccc(C(NC(=O)C2CCN(CCOc3ccccc3Cl)CC2)c2ccccn2)c1 (stereo not drawn) [Compound 21, 1-(2-(2-chlorophenoxy)ethyl)-N-((3-methoxyphenyl)(pyridin-2-yl)methyl) piperidine-4-carboxamide] | 100 to 1000 | > 30000 | > 30000 | 100 to 1000 |
| O=C(NC(c1ccccn1)c1ccccn1)C1CCN(CCOc2ccccc2)CC1 [Compound 30, N-(di(pyridin-2-yl)methyl)-1-(2-phenoxyethyl)piperidine-4-carboxamide] | 10000 to 30000 | > 30000 | 1000 to 10000 | > 30000 |
